Measurements published in patent publication US6358885B1, “Substituted phenylheterocyclic herbicides” (Mississippi State University, priority 1992, dated 2002).

Columns and labels:
giant foxtail = test: Test C preemergence/postemergence greenhouse plant response rating 0 to 100; assay type: in vivo, Setaria faberii; settings: POSTEMERGENCE; for Plant response rating, Giant foxtail: 0 to 100 scale
How it was run: (§1)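 Compounds in non-phytotoxic solvent applied preemergence to sandy loam one day after planting, postemergence at the 1–4 leaf stage, or to ~2.5 cm floodwater over silt loam.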

corn [1] = test: as above; assay type: in vivo, Zea mays; settings: POSTEMERGENCE; for Plant response rating, Corn: 0 to 100 scale
How it was run: as §1

duck salad = test: Test C flood test plant response rating 0 to 100; assay type: in vivo, Heteranthera limosa; settings: for Plant response rating (0 to 100), Duck salad: under POSTEMERGENCE head (flood test species); for Plant response rating Duck salad: flood test species listed under POSTEMERGENCE, 0 to 100 scale
How it was run: as §1

cotton = test: Test C preemergence/postemergence greenhouse plant response rating 0 to 100; assay type: in vivo, Gossypium hirsutum; settings: POSTEMERGENCE; for Plant response rating, Cotton: 0 to 100 scale
How it was run: as §1

morningglory = test: as above; assay type: in vivo, Ipomoea hederacea; settings: POSTEMERGENCE; for Plant response rating, Morningglory: 0 to 100 scale
How it was run: as §1

corn [2] = test: Test B preemergence/postemergence greenhouse plant response rating 0 to 10; assay type: in vivo, Zea mays; settings: 0 to 10 scale
How it was run: (§2)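 Planted seeds are treated preemergence with compound dissolved in a non-phytotoxic solvent, while postemergence applications go onto plants of two to eighteen cm. Plants stay in the greenhouse twelve to sixteen days and are then rated visually relative to controls.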

sorghum = test: Test C preemergence/postemergence greenhouse plant response rating 0 to 100; assay type: in vivo, Sorghum bicolor; settings: POSTEMERGENCE; for Plant response rating, Sorghum: 0 to 100 scale
How it was run: as §1

downy brome = test: as above; assay type: in vivo, Bromus tectorum; settings: POSTEMERGENCE; for Plant response rating Downy Brome: 0 to 100 scale
How it was run: as §1

bedstraw [3] = test: as above; assay type: in vivo, Galium aparine; settings: POSTEMERGENCE
How it was run: as §1

velvetleaf = test: as above; assay type: in vivo, Abutilon theophrasti; settings: POSTEMERGENCE; for Plant response rating, Velvetleaf: 0 to 100 scale
How it was run: as §1

bedstraw [4] = test: Test B preemergence/postemergence greenhouse plant response rating 0 to 10; assay type: in vivo, Galium aparine; settings: 0 to 10 scale
How it was run: as §2

sugar beet = test: as above; assay type: in vivo, Beta vulgaris; settings: 0 to 10 scale
How it was run: as §2

barnyardgrass = test: Test C flood test plant response rating 0 to 100; assay type: in vivo, Echinochloa crus-galli; settings: for Plant response rating (0 to 100), Barnyardgrass: under POSTEMERGENCE head (flood test species); for Plant response rating, Barnyardgrass: flood test species listed under POSTEMERGENCE, 0 to 100 scale
How it was run: as §1

wild oat = test: Test C preemergence/postemergence greenhouse plant response rating 0 to 100; assay type: in vivo, Avena fatua; settings: POSTEMERGENCE; for Plant response rating, Wild oat: 0 to 100 scale
How it was run: as §1

wild buckwheat = test: Test B preemergence/postemergence greenhouse plant response rating 0 to 10; assay type: in vivo, Polygonum convolvulus; settings: 0 to 10 scale
How it was run: as §2

wheat = test: Test C preemergence/postemergence greenhouse plant response rating 0 to 100; assay type: in vivo, Triticum aestivum; settings: POSTEMERGENCE; for Plant response rating, Wheat: 0 to 100 scale
How it was run: as §1

chickweed = test: Test B preemergence/postemergence greenhouse plant response rating 0 to 10; assay type: in vivo, Stellaria media; settings: 0 to 10 scale
How it was run: as §2

C=C(Cl)COc1cc(-c2nn3c(c2Cl)CCCC3)c(F)cc1Cl [Compound 40]
Plant response rating, Giant foxtail (giant foxtail; 62 g/ha): 60
Plant response rating, Giant foxtail (giant foxtail; 125 g/ha): 70
Plant response rating (0 to 100), Giant foxtail (giant foxtail; Rate 16 g/ha): 30
Plant response rating (0 to 100), Giant foxtail (giant foxtail; Rate 31 g/ha): 40
Plant response rating, Corn (corn [1]; 62 g/ha): 30
Plant response rating, Corn (corn [1]; 125 g/ha): 30
Plant response rating (0 to 100), Corn (corn [1]; Rate 16 g/ha): 30
Plant response rating (0 to 100), Corn (corn [1]; Rate 31 g/ha): 30
Plant response rating (0 to 100), Duck salad (duck salad; Rate 16 g/ha): 0
Plant response rating (0 to 100), Duck salad (duck salad; Rate 31 g/ha): 65
Plant response rating Duck salad (duck salad; 62 g/ha): 80
Plant response rating Duck salad (duck salad; 125 g/ha): 85
Plant response rating, Cotton (cotton; 62 g/ha): 100
Plant response rating, Cotton (cotton; 125 g/ha): 100
Plant response rating (0 to 100), Cotton (cotton; Rate 16 g/ha): 100
Plant response rating (0 to 100), Cotton (cotton; Rate 31 g/ha): 100
Plant response rating, Morningglory (morningglory; 62 g/ha): 50
Plant response rating, Morningglory (morningglory; 125 g/ha): 70
Plant response rating (0 to 100), Morningglory (morningglory; Rate 16 g/ha): 50
Plant response rating (0 to 100), Morningglory (morningglory; Rate 31 g/ha): 50
Plant response rating, Corn (corn [2]; POSTEMERGENCE, Rate 50 g/ha): 4
Plant response rating, Corn (corn [2]; POSTEMERGENCE, Rate 200 g/ha): 5
Plant response rating, Corn (corn [2]; PREEMERGENCE, Rate 50 g/ha): 0
Plant response rating, Corn (corn [2]; Rate 200 g/ha, PREEMERGENCE): 1
Plant response rating, Sorghum (sorghum; 62 g/ha): 30
Plant response rating, Sorghum (sorghum; 125 g/ha): 50
Plant response rating (0 to 100), Sorghum (sorghum; Rate 16 g/ha): 20
Plant response rating (0 to 100), Sorghum (sorghum; Rate 31 g/ha): 20
Plant response rating Downy Brome (downy brome; 62 g/ha): 50
Plant response rating Downy Brome (downy brome; 125 g/ha): 60
Plant response rating (0 to 100), Downy Brome (downy brome; Rate 16 g/ha): 30
Plant response rating (0 to 100), Downy Brome (downy brome; Rate 31 g/ha): 40
Plant response rating, Bedstraw (bedstraw [3]; 125 g/ha, 0 to 100 scale): 60
Plant response rating (0 to 100), Bedstraw (bedstraw [3]; Rate 16 g/ha): 30
Plant response rating (0 to 100), Bedstraw (bedstraw [3]; Rate 31 g/ha): 30
Plant response rating, Velvetleaf (velvetleaf; 62 g/ha): 100
Plant response rating, Velvetleaf (velvetleaf; 125 g/ha): 100
Plant response rating (0 to 100), Velvetleaf (velvetleaf; Rate 16 g/ha): 90
Plant response rating (0 to 100), Velvetleaf (velvetleaf; Rate 31 g/ha): 90
Plant response rating, Bedstraw (bedstraw [4]; POSTEMERGENCE, Rate 50 g/ha): 10
Plant response rating, Bedstraw (bedstraw [4]; PREEMERGENCE, Rate 50 g/ha): 9
Plant response rating, Bedstraw (bedstraw [4]; Rate 200 g/ha, PREEMERGENCE): 9
Plant response rating, Sugar beet (sugar beet; POSTEMERGENCE, Rate 50 g/ha): 10
Plant response rating, Sugar beet (sugar beet; PREEMERGENCE, Rate 50 g/ha): 9
Plant response rating, Sugar beet (sugar beet; Rate 200 g/ha, POSTEMERGENCE): 10
Plant response rating, Sugar beet (sugar beet; Rate 200 g/ha, PREEMERGENCE): 9
Plant response rating (0 to 100), Barnyardgrass (barnyardgrass; Rate 16 g/ha): 100
Plant response rating (0 to 100), Barnyardgrass (barnyardgrass; Rate 31 g/ha): 100
Plant response rating, Barnyardgrass (barnyardgrass; 62 g/ha): 100
Plant response rating, Barnyardgrass (barnyardgrass; 125 g/ha): 100
Plant response rating, Wild oat (wild oat; 62 g/ha): 30
Plant response rating, Wild oat (wild oat; 125 g/ha): 40
Plant response rating (0 to 100), Wild oat (wild oat; Rate 16 g/ha): 20
Plant response rating (0 to 100), Wild oat (wild oat; Rate 31 g/ha): 20
Plant response rating, Wild buckwheat (wild buckwheat; POSTEMERGENCE, Rate 50 g/ha): 9
Plant response rating, Wild buckwheat (wild buckwheat; Rate 200 g/ha, POSTEMERGENCE): 10
Plant response rating, Wild buckwheat (wild buckwheat; Rate 200 g/ha, PREEMERGENCE): 9
Plant response rating, Wheat (wheat; 62 g/ha): 40
Plant response rating, Wheat (wheat; 125 g/ha): 50
Plant response rating (0 to 100), Wheat (wheat; Rate 16 g/ha): 20
Plant response rating (0 to 100), Wheat (wheat; Rate 31 g/ha): 30
Plant response rating, Chickweed (chickweed; POSTEMERGENCE, Rate 50 g/ha): 10
Plant response rating, Chickweed (chickweed; POSTEMERGENCE, Rate 200 g/ha): 10
Plant response rating, Chickweed (chickweed; PREEMERGENCE, Rate 50 g/ha): 0
Plant response rating, Chickweed (chickweed; Rate 200 g/ha, PREEMERGENCE): 5
